Literature values in article PMC7693160 (Pharmaceutics, 2020).

Key:
Design in all cases: method as in Kumar et al. 43
Settings in all cases: ref Kumar et al. 43, read-out: Perpetrator in vitro Ki; cited from earlier work
[1] = test system: CYP2C9 3*/3*
[2] = test system: CYP2C9 1*/3*
[3] = test system: CYP2C9 1*/1*

## OC(Cn1cncn1)(Cn1cncn1)c1ccc(F)cc1F [Fluconazole, fluconazole]
[1]
  Ki: 23 µM
[2]
  Ki: 17 µM
[3]
  Ki: 11 µM
